What follows are compounds tested against T1, human Nav1.8 (hNav1.8) ion channel (Homo sapiens, UniProt Q9Y5Y9) (assay: Nav1.8 channel inhibition, estimated IC50 (one or more of: fluorescence inhibition assay, PatchXpress, IonFlux HT automated patch clamp)). Details: HEK293 cells stably expressing hNav1.8; method used per compound not stated; read-out: Activity range (estimated IC50).
T1 construct: expressed in transfected cells; host or cells: HEK293
Assay type: cell-based
Summary of the method: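 HEK293 cells stably expressing hNav1.8 with β1/β2 subunits; IC50 from the fluorescence assay and/or automated whole-cell patch clamp (PatchXpress, IonFlux HT). Fluorescence: ANG-2 Na dye, 5 min compound preincubation (0.02–5 μM, 1% DMSO) with 30 μM ouabain, stimulation by 10 μM deltamethrin, peak signal fit logistically. PatchXpress: holding potential reset to Vhalf, inhibition normalized to control/washout currents.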

T1 sequence (Q9Y5Y9 whole entry): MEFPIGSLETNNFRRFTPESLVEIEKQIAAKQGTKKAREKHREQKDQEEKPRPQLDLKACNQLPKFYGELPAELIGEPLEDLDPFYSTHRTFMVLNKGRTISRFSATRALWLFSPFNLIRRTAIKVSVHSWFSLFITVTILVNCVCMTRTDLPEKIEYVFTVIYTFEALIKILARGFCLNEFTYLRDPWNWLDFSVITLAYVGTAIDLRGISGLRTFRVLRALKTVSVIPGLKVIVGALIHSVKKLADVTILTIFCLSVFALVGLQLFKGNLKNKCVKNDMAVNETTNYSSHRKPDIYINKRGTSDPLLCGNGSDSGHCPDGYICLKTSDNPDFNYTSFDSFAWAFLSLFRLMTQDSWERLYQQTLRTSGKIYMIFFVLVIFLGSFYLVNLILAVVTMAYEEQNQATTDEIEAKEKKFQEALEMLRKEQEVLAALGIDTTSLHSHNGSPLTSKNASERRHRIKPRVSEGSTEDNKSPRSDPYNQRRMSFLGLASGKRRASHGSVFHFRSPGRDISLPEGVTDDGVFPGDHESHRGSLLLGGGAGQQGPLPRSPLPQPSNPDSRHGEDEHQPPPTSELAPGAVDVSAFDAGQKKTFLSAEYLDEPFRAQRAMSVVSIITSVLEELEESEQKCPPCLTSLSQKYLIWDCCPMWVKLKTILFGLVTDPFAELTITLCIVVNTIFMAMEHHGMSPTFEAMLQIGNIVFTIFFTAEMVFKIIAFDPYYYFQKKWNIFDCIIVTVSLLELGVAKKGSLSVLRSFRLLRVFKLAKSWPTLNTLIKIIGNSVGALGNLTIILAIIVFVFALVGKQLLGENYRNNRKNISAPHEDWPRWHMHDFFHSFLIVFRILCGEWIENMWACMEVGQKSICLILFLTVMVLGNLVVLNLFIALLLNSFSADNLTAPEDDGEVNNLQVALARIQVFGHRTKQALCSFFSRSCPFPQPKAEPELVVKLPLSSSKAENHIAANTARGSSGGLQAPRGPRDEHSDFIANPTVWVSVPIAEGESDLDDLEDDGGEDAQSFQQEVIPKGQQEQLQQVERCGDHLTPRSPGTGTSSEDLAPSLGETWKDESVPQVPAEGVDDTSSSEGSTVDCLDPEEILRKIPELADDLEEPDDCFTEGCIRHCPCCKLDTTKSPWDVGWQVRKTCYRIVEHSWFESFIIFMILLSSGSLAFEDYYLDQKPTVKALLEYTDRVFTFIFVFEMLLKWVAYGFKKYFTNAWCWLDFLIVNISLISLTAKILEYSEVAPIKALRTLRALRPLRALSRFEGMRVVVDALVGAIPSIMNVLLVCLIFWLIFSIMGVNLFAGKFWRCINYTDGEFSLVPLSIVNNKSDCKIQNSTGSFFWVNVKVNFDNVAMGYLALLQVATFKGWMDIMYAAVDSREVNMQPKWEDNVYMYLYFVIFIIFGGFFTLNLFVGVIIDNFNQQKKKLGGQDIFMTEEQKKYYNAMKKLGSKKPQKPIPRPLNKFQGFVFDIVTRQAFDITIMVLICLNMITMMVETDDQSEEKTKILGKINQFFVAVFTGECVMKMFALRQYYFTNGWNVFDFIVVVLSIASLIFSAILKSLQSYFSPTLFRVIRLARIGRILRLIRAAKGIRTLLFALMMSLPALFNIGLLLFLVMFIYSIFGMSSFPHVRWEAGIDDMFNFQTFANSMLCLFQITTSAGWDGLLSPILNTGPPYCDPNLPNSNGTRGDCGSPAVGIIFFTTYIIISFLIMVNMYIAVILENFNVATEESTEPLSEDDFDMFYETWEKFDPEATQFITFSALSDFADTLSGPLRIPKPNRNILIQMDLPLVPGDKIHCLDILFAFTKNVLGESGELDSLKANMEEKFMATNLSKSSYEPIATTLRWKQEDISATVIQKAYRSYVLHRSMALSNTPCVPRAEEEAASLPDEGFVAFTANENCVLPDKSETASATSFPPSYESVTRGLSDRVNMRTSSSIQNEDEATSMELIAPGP

| SMILES | IC50 |
| --- | --- |
| CS(=O)(=O)c1cccc(NC(=O)c2cnc(C(F)(F)F)cc2Oc2ccc(OC(F)(F)F)cc2Cl)c1 [Example 74, 4-[2-chloro-4-(trifluoromethoxy)phenoxy]-N-(3-methylsulfonylphenyl)-6-(trifluoromethyl)pyridine-3-carboxamide] | < 500 nM |
| CS(=O)(=O)c1cccc(NC(=O)c2cc(C(F)(F)F)cnc2Oc2cc(Cl)cc(Cl)c2)c1 [Example 56, 2-(3,5-dichlorophenoxy)-N-(3-methylsulfonyl-phenyl)-5-(trifluoromethyl)pyridine-3-carboxamide] | > 1000 nM |
| COc1cc(F)ccc1Oc1ncc(C(F)(F)F)cc1C(=O)Nc1ccc(C#N)nc1 [Example 7, N-(6-cyano-3-pyridyl)-2-(4-fluoro-2-methoxy-phenoxy)-5-(trifluoromethyl)pyridine-3-carboxamide] | > 1000 nM |
| CN=S(C)(=O)c1cccc(NC(=O)c2cc(C(F)(F)F)cnc2Oc2ccc(F)cc2C)c1 (stereo not drawn) [Example 114, N-[3-(N,S-dimethylsulfonimidoyl)phenyl]-2-(4-fluoro-2-methyl-phenoxy)-5-(trifluoromethyl)pyridine-3-carboxamide] | < 500 nM |
| Cc1ccc(S(C)(=O)=O)cc1NC(=O)c1cc(C(F)(F)F)cnc1Oc1ccc(OC(F)(F)F)cc1Cl [Example 168, 2-[2-chloro-4-(trifluoromethoxy)phenoxy]-N-(2-methyl-5-methylsulfonyl-phenyl)-5-(trifluoromethyl)pyridine-3-carboxamide] | 500 to 1000 nM |
| COc1cc(F)ccc1Oc1ncc(C(F)(F)F)cc1C(=O)Nc1cccc(S(=O)(=O)C(F)(F)F)c1 [Example 13, 2-(4-fluoro-2-methoxy-phenoxy)-5-(trifluoromethyl)-N-[3-(trifluoromethylsulfonyl)phenyl]pyridine-3-carboxamide] | > 1000 nM |
| CC(C)Oc1ccccc1Oc1ncc(C(F)(F)F)cc1C(=O)Nc1cccc(S(C)(=O)=O)c1 [Example 27, 2-(2-isopropoxyphenoxy)-N-(3-methylsulfonylphenyl)-5-(trifluoromethyl)pyridine-3-carboxamide] | > 1000 nM |
| COc1ccc(Oc2ncc(C(F)(F)F)cc2C(=O)Nc2ccnnc2)c(OC)c1 [Example 173, 2-(2,4-dimethoxyphenoxy)-N-pyridazin-4-yl-5-(trifluoromethyl)pyridine-3-carboxamide] | > 1000 nM |
| CN(C)c1cc(NC(=O)c2cnc(C(F)(F)F)cc2Oc2ccc(OC(F)(F)F)cc2Cl)ccn1 [Example 73, 4-[2-chloro-4-(trifluoromethoxy)phenoxy]-N-[2-(dimethylamino)-4-pyridyl]-6-(trifluoromethyl)pyridine-3-carboxamide] | > 1000 nM |
| CS(=N)(=O)c1cccc(NC(=O)c2cc(C(F)(F)F)cnc2Oc2ccc(F)cc2F)c1 (stereo not drawn) [Example 174, 2-(2,4-difluorophenoxy)-N-[3-(methylsulfonimidoyl)phenyl]-5-(trifluoromethyl)pyridine-3-carboxamide] | < 500 nM |
| Cc1cc(F)ccc1Oc1ncc(C(F)(F)F)cc1C(=O)Nc1cccc(S(C)(=O)=O)c1 [Example 113, 2-(4-fluoro-2-methyl-phenoxy)-N-(3-methylsulfonylphenyl)-5-(trifluoromethyl)pyridine-3-carboxamide] | 500 to 1000 nM |
| COc1cc(F)ccc1Oc1cc(C(F)(F)F)ncc1C(=O)Nc1cccc([S+](C)[O-])c1 (stereo not drawn) [Example 68, 4-(4-fluoro-2-methoxy-phenoxy)-N-(3-methylsulfinylphenyl)-6-(trifluoromethyl)pyridine-3-carboxamide] | < 500 nM |
| Cc1cc(F)ccc1Oc1ncc(C(F)(F)F)cc1C(=O)Nc1ccnnc1 [Example 116, 2-(4-fluoro-2-methyl-phenoxy)-N-pyridazin-4-yl-5-(trifluoromethyl)pyridine-3-carboxamide] | > 1000 nM |
| O=C(Nc1ccnnc1)c1cc(C(F)(F)F)cnc1Oc1ccc(Cl)cc1Cl [Example 63, 2-(2,4-dichlorophenoxy)-N-pyridazin-4-yl-5-(trifluoromethyl)pyridine-3-carboxamide] | 500 to 1000 nM |
| CS(=O)(=O)c1ccc(F)c(NC(=O)c2cc(C(F)(F)F)cnc2Oc2ccc(OC(F)(F)F)cc2Cl)c1 [Example 162, 2-[2-chloro-4-(trifluoromethoxy)phenoxy]-N-(2-fluoro-5-methylsulfonyl-phenyl)-5-(trifluoromethyl)pyridine-3-carboxamide] | < 500 nM |
| COc1ccc(Oc2cc(C(F)(F)F)ncc2C(=O)Nc2ccc[n+]([O-])c2)c(OC)c1 [Example 88, 4-(2,4-dimethoxyphenoxy)-N-(1-oxidopyridin-1-ium-3-yl)-6-(trifluoromethyl)pyridine-3-carboxamide] | < 500 nM |
| Cc1cc(F)ccc1Oc1cc(C(F)(F)F)ncc1C(=O)Nc1cccc(S(C)(=N)=O)c1 (stereo not drawn) [Example 93, 4-(4-fluoro-2-methyl-phenoxy)-N-[3-(methylsulfonimidoyl)phenyl]-6-(trifluoromethyl)pyridine-3-carboxamide] | > 1000 nM |
| CN=S(C)(=O)c1cccc(NC(=O)c2cnc(C(F)(F)F)cc2Oc2ccc(F)cc2C)c1 (stereo not drawn) [Example 94, N-[3-(N,S-dimethylsulfonimidoyl)phenyl]-4-(4-fluoro-2-methyl-phenoxy)-6-(trifluoromethyl)pyridine-3-carboxamide] | < 500 nM |

More lines, now with the values ahead:

| IC50 | SMILES |
| --- | --- |
| < 500 nM | CS(=N)(=O)c1cccc(NC(=O)c2cc(C(F)(F)F)cnc2Oc2ccc(OC(F)F)cc2)c1 (stereo not drawn) [Example 59, 2-[4-(difluoromethoxy)phenoxy]-N-[3-(methylsulfonimidoyl)phenyl]-5-(trifluoromethyl)pyridine-3-carboxamide] |
| < 500 nM | O=C(Nc1ccc[n+]([O-])c1)c1cnc(C(F)(F)F)cc1Oc1ccc(OC(F)(F)F)cc1 [Example 87, N-(1-oxidopyridin-1-ium-3-yl)-4-[4-(trifluoromethoxy)phenoxy]-6-(trifluoromethyl)pyridine-3-carboxamide] |
| < 500 nM | N#Cc1cccc(NC(=O)c2cc(C(F)(F)F)cnc2Oc2ccc(OC(F)(F)F)cc2Cl)c1 [Example 146, 2-[2-chloro-4-(trifluoromethoxy)phenoxy]-N-(3-cyanophenyl)-5-(trifluoromethyl)pyridine-3-carboxamide] |
| > 1000 nM | CC(=O)c1cccc(NC(=O)c2cc(C(F)(F)F)cnc2Oc2ccc(OC(F)(F)F)cc2Cl)c1 [Example 149, N-(3-acetylphenyl)-2-[2-chloro-4-(trifluoromethoxy)phenoxy]-5-(trifluoromethyl)pyridine-3-carboxamide] |
| < 500 nM | CS(=O)(=O)c1cccc(NC(=O)c2cc(C(F)(F)F)cnc2Oc2ccc(OCC(F)(F)F)cc2)c1 [Example 50, N-(3-methylsulfonyl-phenyl)-2-[4-(2,2,2-trifluoroethoxy)phenoxy]-5-(trifluoromethyl)pyridine-3-carboxamide] |
| 500 to 1000 nM | O=C(Nc1cnns1)c1cc(C(F)(F)F)cnc1Oc1ccc(OC(F)(F)F)cc1Cl [Example 166, 2-[2-chloro-4-(trifluoromethoxy)phenoxy]-N-(thiadiazol-5-yl)-5-(trifluoromethyl)pyridine-3-carboxamide] |
| < 500 nM | CS(=O)(=O)c1cccc(NC(=O)c2cc(C(F)(F)F)cnc2Oc2ccccc2C(F)(F)F)c1 [Example 53, N-(3-methylsulfonyl-phenyl)-5-(trifluoromethyl)-2-[2-(trifluoromethyl)phenoxy]pyridine-3-carboxamide] |
| < 500 nM | CS(=O)(=O)c1cccc(NC(=O)c2cc(C(F)(F)F)cnc2Oc2ccc(OC(F)(F)F)cc2Cl)c1 [Example 142, 2-[2-chloro-4-(trifluoromethoxy)phenoxy]-N-(3-methylsulfonylphenyl)-5-(trifluoromethyl)pyridine-3-carboxamide] |
| < 500 nM | CN=S(C)(=O)c1cccc(NC(=O)c2cc(C(F)(F)F)cnc2Oc2ccc(OC(F)(F)F)cc2)c1 (stereo not drawn) [Example 124, N-[3-(N,S-dimethylsulfonimidoyl)phenyl]-2-[4-(trifluoromethoxy)phenoxy]-5-(trifluoromethyl)pyridine-3-carboxamide] |
| < 500 nM | O=C(Nc1ccncc1)c1cc(C(F)(F)F)cnc1Oc1ccc(OC(F)(F)F)cc1 [Example 127, N-(4-pyridyl)-2-[4-(trifluoromethoxy)phenoxy]-5-(trifluoromethyl)pyridine-3-carboxamide] |
| > 1000 nM | Cn1ncnc1NC(=O)c1cc(C(F)(F)F)cnc1Oc1ccc(OC(F)(F)F)cc1Cl [Example 169, 2-[2-chloro-4-(trifluoromethoxy)phenoxy]-N-(2-methyl-1,2,4-triazol-3-yl)-5-(trifluoromethyl)pyridine-3-carboxamide] |
| < 500 nM | CS(=O)(=O)c1ccc(NC(=O)c2cc(C(F)(F)F)cnc2Oc2ccc(OC(F)(F)F)cc2Cl)cc1 [Example 152, 2-[2-chloro-4-(trifluoromethoxy)phenoxy]-N-(4-methylsulfonylphenyl)-5-(trifluoromethyl)pyridine-3-carboxamide] |
| < 500 nM | O=C(Nc1ccnc(F)c1)c1cc(C(F)(F)F)cnc1Oc1ccc(OC(F)(F)F)cc1Cl [Example 165, 2-[2-chloro-4-(trifluoromethoxy)phenoxy]-N-(2-fluoro-4-pyridyl)-5-(trifluoromethyl)pyridine-3-carboxamide] |
| < 500 nM | CN=S(C)(=O)c1cccc(NC(=O)c2cc(C(F)(F)F)cnc2Oc2ccc(OC(F)(F)F)cc2Cl)c1 (stereo not drawn) [Example 144, 2-[2-chloro-4-(trifluoromethoxy)phenoxy]-N-[3-(N,S-dimethylsulfonimidoyl)phenyl]-5-(trifluoromethyl)pyridine-3-carboxamide] |
| < 500 nM | C[S+]([O-])c1cccc(NC(=O)c2cc(C(F)(F)F)cnc2Oc2ccc(OC(F)(F)F)cc2)c1 (stereo not drawn) [Example 121, N-(3-methylsulfinylphenyl)-2-[4-(trifluoromethoxy)phenoxy]-5-(trifluoromethyl)pyridine-3-carboxamide] |

From patent US12234221B2, “Pyridine carboxamide compounds for inhibiting NAV1.8” (Lieber Institute, Inc., priority 2018, dated 2025)
